According to patent US8389523B2, “Substituted quinoxaline and an agrochemical composition thereof” (Kumiai Chemical Industry Co., Ltd., priority 2007, dated 2013):

Experiments:
Type in all cases: in vivo
Parameters in all cases: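 grade 0 to 5 of growth suppression where 5 is 90% or more and 0 below 10%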
Amaranthus viridis L. [1] = assay: Herbicidal effects in upland field foliar treatment (Test Example 3); conditions: 1000 g active ingredient per hectare, 14th day after treatment, criteria of Table 138
Summary of the method: (§1)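 Weeds were sown in upland field soil and grown two weeks in a greenhouse before a foliar spray over the whole plant. Wettable powder was diluted in water and applied at 1000 L/ha, delivering 1000 g active ingredient/ha. Herbicidal effect was scored against set rating criteria 14 days after treatment.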

[2] = system: Abutilon theophrasti medicus; assay: as above; conditions: 1000 g active ingredient per hectare, 14th day after treatment, criteria of Table 138
Summary of the method: as §1

[3] = system: Echinochloa crus-galli (L.) P. Beauv. var. crus-galli; assay: as above; conditions: 1000 g active ingredient per hectare, 14th day after treatment, criteria of Table 138
Summary of the method: as §1

Amaranthus viridis L. [4] = assay: Herbicidal effects in upland field soil treatment (Test Example 2); conditions: 1000 g active ingredient per hectare, 21st day after treatment, criteria of Table 138
Summary of the method: (§2)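 Pre-emergence soil application: seeds sown in upland field soil, covered, then wettable powder diluted in water sprayed on the soil surface at 1000 g active ingredient/ha in 1000 L/ha. Plants grown in greenhouse; herbicidal effect scored on a rating scale 21 days after treatment.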

[5] = system: Abutilon theophrasti medicus; assay: as above; conditions: 1000 g active ingredient per hectare, 21st day after treatment, criteria of Table 138
Summary of the method: as §2

[6] = system: Echinochloa oryzicola Vasing; assay: Herbicidal effects in paddy field soil treatment (Test Example 1); conditions: paddy field soil treatment; 1000 g of the active ingredient per hectare; wettable powder added dropwise on water surface; 21st day after treatment
Summary of the method: (§3)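 Weed seeds were sown into puddled, leveled paddy soil in pots and flooded to 3 cm water depth. One day later the diluted wettable powder formulation was dropped onto the water surface at 1000 g active ingredient per hectare. Herbicidal effect was scored on day 21 after greenhouse growth.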

[7] = system: Monochoria vaginalis (Burm. f.) Presl var. plantaginea (Roxb.) Solms-Laub.; assay: as above; conditions: paddy field soil treatment; 1000 g of the active ingredient per hectare; wettable powder added dropwise on water surface; 21st day after treatment
Summary of the method: as §3

[8] = system: Scirpus juncoides Roxb. var. ohwianus. T. Koyama; assay: as above; conditions: paddy field soil treatment; 1000 g of the active ingredient per hectare; wettable powder added dropwise on water surface; 21st day after treatment
Summary of the method: as §3

| Structure (SMILES) | herbicidal effect (index) on Amaranthus viridis L. (Amaranthus viridis L. [1]) | herbicidal effect (index) on Abutilon theophrasti medicus [2] | herbicidal effect (index) on Echinochloa crus-galli (L.) P. Beauv. var. crus-galli [3] | herbicidal effect (index) on Amaranthus viridis L. (Amaranthus viridis L. [4]) | herbicidal effect (index) on Abutilon theophrasti medicus [5] | Herbicidal effects index, Echinochloa oryzicola Vasing [6] | Herbicidal effects index, Monochoria vaginalis (Burm. f.) Presl var. plantaginea (Roxb.) Solms-Laub. [7] | Herbicidal effects index, Scirpus juncoides Roxb. var. ohwianus. T. Koyama [8] |
| --- | --- | --- | --- | --- | --- | --- | --- | --- |
| Cc1csc(-n2c(=O)c(C(=O)C3=C(O)CCCC3=O)nc3ccccc32)n1 [I-160] | 5 | 5 | 5 | 5 | 5 | 5 | 5 | 5 |
| Cc1nc(-n2c(=O)c(C(=O)C3=C(O)CCCC3=O)nc3ccccc32)no1 [I-163] | 5 | 5 | 4 | 5 | 5 | 4 | 5 | 5 |
| O=C1CCCC(O)=C1C(=O)c1nc2ccccc2n(-c2ccccn2)c1=O [I-171] | 5 | 5 | 5 | 5 | 5 | 5 | 5 | 5 |
| Cc1cccc(-n2c(=O)c(C(=O)C3=C(O)CCCC3=O)nc3ccccc32)n1 [I-173, 3-(2-hydroxy-6-oxo-1-cyclohexenecarbonyl)-1-(6-methyl-2-pyridyl)-quinoxalin-2 (1H)-one] | 5 | 5 | 5 | 5 | 5 | 5 | 5 | 5 |
| O=C1CCCC(O)=C1C(=O)c1nc2ccccc2n(-c2ccc(F)cn2)c1=O [I-176] | 5 | 5 | 5 | 5 | 5 | 5 | 5 | 5 |
| O=C1CCCC(O)=C1C(=O)c1nc2ccccc2n(-c2ccc(Cl)cn2)c1=O [I-177] | 5 | 5 | 5 | 5 | 5 | 5 | 5 | 5 |
| O=C1CCCC(O)=C1C(=O)c1nc2ccccc2n(-c2ccc(C(F)(F)F)cn2)c1=O [I-179] | 5 | 5 | 5 | 5 | 5 | 5 | 5 | 5 |
| COc1ccc(-n2c(=O)c(C(=O)C3=C(O)CCCC3=O)nc3ccccc32)nc1 [I-180] | 5 | 5 | 4 | 5 | 5 | 4 | 5 | 5 |
| Cc1ccnc(-n2c(=O)c(C(=O)C3=C(O)CCCC3=O)nc3ccccc32)c1 [I-182] | 5 | 5 | 5 | 5 | 5 | 5 | 5 | 5 |
